Values joined by “and” are separate entries in the source; they are usually repeats but may differ in a detail not shown here. Equal values may be shown once. Where a name gives a salt, the structure may show the parent alone. Read-outs that look alike come from different tables or passages of the source.
Tests used:
[1] = Drug loading of payloads in liposomes (thin-film hydration; quantitated after liposome disruption); assay type: physicochemical
[2] = In vitro cumulative drug release by dialysis at 37° C.; assay type: physicochemical
sciatic nerve [3] = details: rat, in vivo
sciatic nerve [4] = assay: Motor nerve block, weight-bearing test; details: rat, in vivo
Experimental: Motor nerve block was assessed by a weight-bearing test to determine the motor strength of the rat's hind paw. The rat was positioned with one hind paw on a digital balance and was allowed to bear its own weight. The maximum weight that the rat could bear without the ankle touching the balance was recorded, and motor block was considered achieved when the motor strength was less than half maximal. Measurements were repeated three times at each time point and the median was used for further data analysis.
Duration of sensory block were calculated as the time required for thermal latency to return to 7 seconds (halfway between the baseline and maximal latencies). The duration of motor block was defined as the time it took for the weight-bearing to return to halfway between normal and maximal block.

[5] = tested on: sciatic nerves and surrounding tissues; details: rat, in vivo
[6] = pH 7.4
[7] = cited from earlier work
[8] = Phase transition temperature of acyl chain-modified phospholipids; assay type: physicochemical
physchem = details: pH 4
[9] = tested on: PC12 rat adrenal gland pheochromocytoma cells
[10] = payload in aromatized liposomes containing Ph-DPPC (Lipo-Ph)
[11] = first 24 h, Lipo-Ph versus Lipo
[12] = payload from aromatized liposomes, 37° C.

Compound: tetrodotoxin [TTX]
- Drug loading, Lipo [1]: 0.11 ± 0.01%
- Drug loading, Lipo-Ph [1]: 0.13 ± 0.01%
- Increase in loading [1]: 25.5%
- Cumulative release in first 24 h, Lipo [2]: 17.1 ± 0.3%
- Cumulative release in first 24 h, Lipo-Ph [2]: 11.3 ± 0.4%
- Decrease in release [2]: 34.0%
- TTX released after 8 hours [2]: More than 95%
- Duration of nerve block (sciatic nerve [3]): 2.5 ± 0.6 h and 2.5 h
- nerve block (sciatic nerve [3]): did not induce detectable nerve block
- sensory nerve block (sciatic nerve [3]): no detectable block
- difference between the duration of sensory and motor nerve block (sciatic nerve [4]): no statistically significant difference
- Inflammation Scores, Day 4 [5]: 0
- Inflammation Scores, Day 14 [5]: 0 (0-0)
- Myotoxicity Scores, Day 4 [5]: 0
- Myotoxicity Scores, Day 14 [5]: 0
- log P (octanol-water partition coefficient) [6]: 0.13
- Log P [7]: −6.2

Compound: CCCCCCCCCCCCCCCC(=O)OC[C@H](COP(=O)([O-])OCC[N+](C)(C)C)OC(=O)CCCCCCCCCCCCCCCOc1ccccc1 [Ph-DPPC, 1-palmitoyl-2-(16-phenoxy)palmitoyl-sn-glycero-3-phosphocholine]
- phase transition temperature (Tm) [8]: 47.4 °C

Compound: COc1cccc2c1C(=O)c1c(O)c3c(c(O)c1C2=O)C[C@@](O)(C(=O)CO)C[C@@H]3O[C@H]1C[C@H](N)[C@H](O)[C@H](C)O1 [Dox, doxorubicin hydrochloride]
- Drug loading, Lipo [1]: 0.8 ± 0.1%
- Increase in loading ([1]; Lipo-Ph versus Lipo): 30.4%
- Drug loading, Lipo-Ph [1, 10]: 1.1 ± 0.1%
- Cumulative release in first 24 h, Lipo [2]: 26.8 ± 1.1%
- Decrease in release [2, 11]: 34.3%
- Cumulative release in first 24 h, Lipo-Ph [2, 12]: 17.6 ± 1.0%
- logP (physchem): -0.22

Compound: CCCCN1CCCCC1C(=O)Nc1c(C)cccc1C (stereo not shown) [Bup, bupivacaine hydrochloride]
- Drug loading, Lipo [1]: 3.5 ± 0.7%
- Increase in loading ([1]; Lipo-Ph versus Lipo): 60.0%
- Drug loading, Lipo-Ph [1, 10]: 5.6 ± 0.8%
- Cumulative release in first 24 h, Lipo [2]: 70.7 ± 1.9%
- Decrease in release [2, 11]: 47.7%
- Cumulative release in first 24 h, Lipo-Ph [2, 12]: 37.0 ± 2.7%
- logP (physchem): -0.27

Compound: CCN(CC)c1ccc2c(-c3ccc(S(=O)(=O)O)cc3S(=O)(=O)[O-])c3ccc(=[N+](CC)CC)cc-3oc2c1 [SRho, sulforhodamine B]
- Drug loading, Lipo [1]: 2.6 ± 0.3%
- Increase in loading ([1]; Lipo-Ph versus Lipo): 19.2%
- Drug loading, Lipo-Ph [1, 10]: 3.1 ± 0.2%
- Cumulative release in first 24 h, Lipo [2]: 12.2 ± 0.5%
- Decrease in release [2, 11]: 51.6%
- Cumulative release in first 24 h, Lipo-Ph [2, 12]: 5.9 ± 0.7%
- time within which free dye was released ([2]; unencapsulated SRho in the release set-up): ≤ 6 h
- log P (octanol-water partition coefficient) [6]: −0.53

Compound: Oc1ccccc1 [Phenol, phenol]
- cytotoxicity, C2C12 (C2C12 mouse myoblasts): intrinsically toxic
- cytotoxicity, PC12 [9]: intrinsically toxic

Compound: 1-palmitoyl-2-(16-coumarin)palmitoyl-sn-glycero-3-phosphocholine [CM-DPPC]
- phase transition temperature (Tm) [8]: 66.1 °C
